In US11795173B1, “Substituted pyridines as PARP1 inhibitors” (Xinthera, Inc., priority 2022, dated 2023):

What was measured:
[1] = test system: MDA-MB-436 (mutated BRCA1) cells; assay: Cell growth inhibition assay (CellTiter-Glo), MDA-MB-436; assay type: cell-based; details: Homo sapiens, MDA-MB-436, 168 h; cell viability, CellTiter Glo 2.0, 7 days
Text: The objective of this study is to evaluate the effect of compound disclosed herein on cell proliferation through the cell viability assay in DLD-1 BRCA2(−/−) and parental isogenic pair and MDA-MB-436 (mutated BRCA1) cell lines. The CellTiter-Glo (CTG) based cell viability assay is designed to determine the number of viable cells in the culture because of compound effect, by quantifying ATP, which indicates the presence of metabolically active cells.
(§1) DLD-1 BRCA2(−/−) and parental isogenic pair were cultured in RPMI 1640 supplemented with 10% fetal bovine serum (FBS), and MDA-MB-436 cells were cultured in DMEM supplemented with 10% FBS. Both are culture at 37° C. with 5% CO2. Invention compounds were distributed to the 384 well plate (Corning, 3764) using Echo acoustic liquid handler to form a 1:3 serially diluted final concentration with top dose of 10 or 30 μM. The cells were seeded into the plate in the density of 50 cells/well (DLD-1 parental), 200 cells/well (DLD-1 BRCA2−/−), or 500 cells/well (MDA-MB-436). After a short spun, the cells were cultured in a well moisturized incubator at 37° C. with 5% CO2 for 7 days without disturbance. The cell viability was measured by CellTiter Glo 2.0 assay kit (Promega, G9243), and growth inhibition rate was calculated and plotted against final compound concentration, and the data were fitted in Xfit to generate IC50.

DLD-1 BRCA2(−/−) cells = assay: Cell growth inhibition assay (CellTiter-Glo), DLD-1 BRCA2(−/−); assay type: cell-based; details: Homo sapiens, DLD-1, 168 h; cell viability, CellTiter Glo 2.0, 7 days
Description: The objective of this study is to evaluate the effect of compound disclosed herein on cell proliferation through the cell viability assay in DLD-1 BRCA2(−/−) and parental isogenic pair and MDA-MB-436 (mutated BRCA1) cell lines.
as §1, with “Invention compounds were distributed to the 384 well plate (Corning, 3764) using Echo acoustic liquid handler to form a 1:3 serially diluted final concentration with top dose of 10 or 30 μM.” left out

MDR1 = MDR1 (Homo sapiens (Human), UniProt P08183); assay: In vitro human transporter efflux, MDCKII cells expressing MDR1; assay type: in vitro ADME; details: for Papp A→B at 2 h, 10 μM: MDCK-MDR1, pH 7.4, apical-to-basolateral, pH7.4, read-out: MDCK-MDR1 Papp AB; for Papp A→B at 2 h, 10 μM / Papp B→A at 2 h, 10 μM: 2-hour incubation; for Papp B→A at 2 h, 10 μM: MDCK-MDR1, pH 7.4, basolateral-to-apical, pH7.4, read-out: MDCK-MDR1 Papp BA; for efflux ratio at 2 h, 10 μM: MDCK-MDR1, pH 7.4, efflux ratio Papp BA/Papp AB
Description: (§2) Madin-Darby canine kidney (MDCKII) cells expressing either MDR1 or BCRP were seeded onto Corning HTS Transwell® 96-well polycarbonate permeable (0.4 μm pore) supports at a density of 545,000 cells/cm^2. Cells were incubated for 4-8 days prior to assay, and monolayer integrity was assessed by measuring transepithelial electrical resistance (TEER). […] The final organic solvent concentration was 0.5% (v/v). Bidirectional (apical-to-basolateral and basolateral-to-apical) flux of the test and reference compounds was determined over a 2-hour incubation at 37° C. and 5% CO2 with a relative humidity of 95%. At the end of the incubation, samples from the apical and basolateral side were taken and then precipitated with acetonitrile containing internal standard. After centrifugation at 3200×g, supernatants were diluted 1:1 (v/v) with water and subjected to analysis via HPLC-MS/MS.
(§3) Apparent permeability (Papp, ×10^−6 cm/s) was calculated for all transport assays using the following equation: […]
(§4) Efflux ratio was determined by calculating the ratio of the Papp in the basolateral-to-apical direction to the Papp in the apical-to-basolateral direction using the following equation: […]

BCRP = BCRP (Homo sapiens (Human), UniProt Q9UNQ0); assay: In vitro human transporter efflux, MDCKII cells expressing BCRP; assay type: in vitro ADME; details: 10 μM, 2-hour incubation; for Papp A→B at 2 h, 10 μM: pH 7.4, apical-to-basolateral, pH7.4, read-out: BCRP Papp AB; for Papp B→A at 2 h, 10 μM: pH 7.4, basolateral-to-apical, pH7.4, read-out: BCRP Papp BA
Description: as §2, §3, §4

MDR1, sequence (P08183 whole entry): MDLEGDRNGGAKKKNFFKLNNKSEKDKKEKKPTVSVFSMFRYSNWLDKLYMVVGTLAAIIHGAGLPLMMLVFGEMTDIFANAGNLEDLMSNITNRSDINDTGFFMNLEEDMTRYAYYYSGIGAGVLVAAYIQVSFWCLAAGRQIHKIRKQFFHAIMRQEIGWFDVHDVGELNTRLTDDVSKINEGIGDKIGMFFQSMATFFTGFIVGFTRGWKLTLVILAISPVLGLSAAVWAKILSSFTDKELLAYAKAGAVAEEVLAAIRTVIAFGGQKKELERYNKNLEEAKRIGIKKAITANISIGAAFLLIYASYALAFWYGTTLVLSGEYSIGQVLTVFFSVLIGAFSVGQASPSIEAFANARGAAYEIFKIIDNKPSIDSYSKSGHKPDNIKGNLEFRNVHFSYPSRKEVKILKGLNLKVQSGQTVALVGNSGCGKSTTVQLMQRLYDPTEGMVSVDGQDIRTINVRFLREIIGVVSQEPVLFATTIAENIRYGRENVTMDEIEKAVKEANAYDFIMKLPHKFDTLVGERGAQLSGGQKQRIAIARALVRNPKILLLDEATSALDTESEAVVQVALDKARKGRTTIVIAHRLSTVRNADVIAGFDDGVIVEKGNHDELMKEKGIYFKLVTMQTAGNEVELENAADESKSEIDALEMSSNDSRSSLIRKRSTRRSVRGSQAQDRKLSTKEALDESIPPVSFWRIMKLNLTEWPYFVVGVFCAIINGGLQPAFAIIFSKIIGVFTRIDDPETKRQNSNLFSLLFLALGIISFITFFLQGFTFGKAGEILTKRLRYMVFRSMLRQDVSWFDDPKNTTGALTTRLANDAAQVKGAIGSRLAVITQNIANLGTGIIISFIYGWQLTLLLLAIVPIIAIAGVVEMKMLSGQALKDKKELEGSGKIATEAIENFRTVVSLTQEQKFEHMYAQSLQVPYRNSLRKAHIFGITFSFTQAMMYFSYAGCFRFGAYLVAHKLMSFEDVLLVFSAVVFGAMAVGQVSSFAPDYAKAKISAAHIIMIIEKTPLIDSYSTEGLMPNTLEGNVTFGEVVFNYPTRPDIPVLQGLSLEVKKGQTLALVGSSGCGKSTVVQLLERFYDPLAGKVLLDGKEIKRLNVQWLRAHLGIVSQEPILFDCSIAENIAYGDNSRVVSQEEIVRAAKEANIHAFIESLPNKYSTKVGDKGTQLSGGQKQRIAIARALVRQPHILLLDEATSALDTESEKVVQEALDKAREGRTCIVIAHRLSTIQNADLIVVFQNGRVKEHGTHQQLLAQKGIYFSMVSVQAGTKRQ
BCRP, sequence (Q9UNQ0 whole entry): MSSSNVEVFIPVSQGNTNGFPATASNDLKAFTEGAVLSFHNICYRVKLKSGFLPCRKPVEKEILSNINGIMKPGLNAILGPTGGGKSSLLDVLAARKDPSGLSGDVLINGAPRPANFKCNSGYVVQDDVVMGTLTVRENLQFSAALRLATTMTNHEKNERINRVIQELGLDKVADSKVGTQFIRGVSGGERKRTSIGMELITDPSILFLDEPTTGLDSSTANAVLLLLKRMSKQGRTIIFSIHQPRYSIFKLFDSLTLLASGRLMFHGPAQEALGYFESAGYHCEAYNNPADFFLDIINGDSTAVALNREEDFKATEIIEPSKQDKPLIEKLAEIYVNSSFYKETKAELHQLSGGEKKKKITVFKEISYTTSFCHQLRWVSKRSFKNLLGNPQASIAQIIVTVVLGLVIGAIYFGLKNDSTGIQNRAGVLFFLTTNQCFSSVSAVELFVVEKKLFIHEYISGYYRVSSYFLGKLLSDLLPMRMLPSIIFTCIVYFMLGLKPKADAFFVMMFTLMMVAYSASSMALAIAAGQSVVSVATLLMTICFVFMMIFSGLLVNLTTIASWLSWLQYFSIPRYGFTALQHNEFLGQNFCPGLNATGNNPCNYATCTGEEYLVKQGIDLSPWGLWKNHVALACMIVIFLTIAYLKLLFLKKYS

EC50 [1]	EC50 (DLD-1 BRCA2(−/−) cells)	Papp A→B at 2 h, 10 μM (MDR1)	Papp B→A at 2 h, 10 μM (MDR1)	efflux ratio at 2 h, 10 μM (MDR1)	Papp A→B at 2 h, 10 μM (BCRP)	Papp B→A at 2 h, 10 μM (BCRP)	SMILES
4 nM	6.2 nM						CNC(=O)c1ccc(N2CCN(Cc3ccc4c([nH]c(=O)c5cn(C)nc54)c3F)CC2)c(F)n1 [Example 20, 6-fluoro-5-[4-({6-fluoro-2-methyl-4-oxo-5H-pyrazolo[4,3-c]quinolin-7-yl}methyl)piperazin-1-yl]-N-methylpyridine-2-carboxamide]
1.3 nM	1.5 nM						COCCNC(=O)c1ccc(N2CCN(Cc3ccc4c([nH]c(=O)c5cc(C)nn54)c3F)CC2)c(F)n1 [Example 17]
3.1 nM	5.1 nM						O=C(NC1CC1)c1ccc(N2CCN(Cc3ccc4c5c(c(=O)[nH]c4c3F)CCO5)CC2)c(F)n1 [Example 16]
1.2 nM	1.4 nM						Cc1cc2c(=O)[nH]c3c(F)c(CN4CCN(c5ccc(C(=O)NCC(F)F)nc5F)CC4)ccc3n2n1 [Example 13]
9.2 nM	5.4 nM						[2H]C1([2H])COc2c1c(=O)[nH]c1c(F)c(CN3CCN(c4ccc(C(=O)NC)nc4F)CC3)ccc21 (single isomer, unassigned) [Example 32, 6-fluoro-5-(4-((6-fluoro-4-oxo-2,3,4,5-tetrahydrofuro[3,2-c]quinolin-7-yl-3,3-d2)methyl)piperazin-1-yl)-N-methylpicolinamide]
2.1 nM	4.3 nM						CNC(=O)c1ccc(N2CCN(Cc3ccc4c5c(c(=O)[nH]c4c3F)CCO5)CC2)c(C)n1 [Example 29]
1.1 nM	1 nM	16.3 ×10⁻⁶ cm/s	20.6 ×10⁻⁶ cm/s				CNC(=O)c1ccc(N2CCN(Cc3ccc4c5c(c(=O)[nH]c4c3F)CCC5)CC2)c(F)n1 [Comp. Ex. 4, reference compound]
2.1 nM	3.8 nM						CNC(=O)c1ccc(N2CCN(Cc3ccc4c([nH]c(=O)c5ccoc54)c3F)CC2)c(F)n1 [Example 6, 6-fluoro-5-[4-({6-fluoro-4-oxo-5H-furo[3,2-c]quinolin-7-yl}methyl)piperazin-1-yl]-N-methylpyridine-2-carboxamide]
0.9 nM	1.6 nM						O=C(NCC(F)F)c1ccc(N2CCN(Cc3ccc4c([nH]c(=O)c5ccnn54)c3F)CC2)c(F)n1 [Example 12]
14 nM	21 nM						CNC(=O)c1nc(C)c(N2CCN(Cc3ccc4c5c(c(=O)[nH]c4c3F)CCO5)CC2)cc1F [Example 27]
68 nM							CNC(=O)c1ccc(N2CCN(Cc3ccc4c([nH]c(=O)c5ccnn54)c3F)CC2)cn1 [Example 2]
0.68 nM	1.2 nM						O=C(NC1CC1)c1ccc(N2CCN(Cc3ccc4c([nH]c(=O)c5ccoc54)c3F)CC2)c(F)n1 [Example 14]
0.86 nM	1.1 nM						O=C(NCC(F)F)c1ccc(N2CCN(Cc3ccc4c([nH]c(=O)c5ccoc54)c3F)CC2)c(F)n1 [Example 11]
4.3 nM	9.1 nM						O=C(NC1CC1)c1ccc(N2CCN(Cc3ccc4c([nH]c(=O)c5ccnn54)c3F)CC2)c(F)n1 [Example 3]
0.57 nM	0.84 nM						CNC(=O)c1ccc(N2CCN(Cc3ccc4c([nH]c(=O)c5c(F)cnn54)c3F)CC2)c(F)n1 [Example 28, 5-[4-({3,6-difluoro-4-oxo-5H-pyrazolo[1,5-a]quinoxalin-7-yl}methyl)piperazin-1-yl]-6-fluoro-N-methylpyridine-2-carboxamide]
0.75 nM	1.9 nM						O=C(NCC(F)F)c1ccc(N2CCN(Cc3ccc4c5c(c(=O)[nH]c4c3F)CCO5)CC2)c(F)n1 [Example 15]
1.2 nM	2.1 nM	4.4 ×10⁻⁶ cm/s	8.6 ×10⁻⁶ cm/s	1.96			Cc1cc2c(=O)[nH]c3c(F)c(CN4CCN(c5ccc(C(=O)NC6CC6)nc5F)CC4)ccc3n2n1 [Example 4]
4.9 nM	6.6 nM	15.1 ×10⁻⁶ cm/s	23.3 ×10⁻⁶ cm/s		28.2 ×10⁻⁶ cm/s	23.6 ×10⁻⁶ cm/s	[2H]C([2H])([2H])NC(=O)c1ccc(N2CCN(Cc3ccc4c5c(c(=O)[nH]c4c3F)CCO5)CC2)c(F)n1 (single isomer, unassigned) [Example 22]
1.3 nM	2.1 nM						CNC(=O)c1ccc(N2CCN(Cc3ccc4c([nH]c(=O)n5cccc45)c3F)CC2)c(F)n1 [Example 7, 6-fluoro-5-[4-({7-fluoro-5-oxo-6H-pyrrolo[1,2-c]quinazolin-8-yl}methyl)piperazin-1-yl]-N-methylpyridine-2-carboxamide]
6 nM	7.5 nM						CNC(=O)c1ccc(N2CCN(Cc3ccc4c5c(c(=O)[nH]c4c3F)CCO5)CC2)cn1 [Example 26]
31 nM	57 nM						CNC(=O)c1ccc(N2CCN(Cc3ccc4c([nH]c(=O)c5cnn(C)c54)c3F)CC2)c(F)n1 [Example 19, 6-fluoro-5-[4-({6-fluoro-1-methyl-4-oxo-5H-pyrazolo[4,3-c]quinolin-7-yl}methyl)piperazin-1-yl]-N-methylpyridine-2-carboxamide]
0.66 nM	1.3 nM						Cc1cc2c(=O)[nH]c3c(F)c(CN4CCN(c5ccc(C(=O)NC6COC6)nc5F)CC4)ccc3n2n1 [Example 21]
0.94 nM	1.8 nM						CNC(=O)c1ccc(N2CCN(Cc3ccc4c([nH]c(=O)c5c(Cl)cnn54)c3F)CC2)c(F)n1 [Example 8]
2.7 nM	4.7 nM						CNC(=O)c1ccc(N2CCN(Cc3ccc4c([nH]c(=O)c5c(C)cnn54)c3F)CC2)c(F)n1 [Example 23]
6.9 nM	7.7 nM						[2H]C1([2H])Cc2c(c3ccc(CN4CCN(c5ccc(C(=O)NC)nc5F)CC4)c(F)c3[nH]c2=O)O1 (single isomer, unassigned) [Example 31, 6-fluoro-5-(4-((6-fluoro-4-oxo-2,3,4,5-tetrahydrofuro[3,2-c]quinolin-7-yl-2,2-d2)methyl)piperazin-1-yl)-N-methylpicolinamide]
0.3 nM	0.64 nM						CNC(=O)c1ccc(N2CCN(Cc3ccc4c([nH]c(=O)c5cccn54)c3F)CC2)c(F)n1 [Example 10, 6-fluoro-5-[4-({6-fluoro-4-oxo-5H-pyrrolo[1,2-a]quinoxalin-7-yl}methyl)piperazin-1-yl]-N-methylpyridine-2-carboxamide]
2.9 nM	4.2 nM	10.3 ×10⁻⁶ cm/s	21.2 ×10⁻⁶ cm/s	2.06			CNC(=O)c1ccc(N2CCN(Cc3ccc4c([nH]c(=O)c5cc(C)nn54)c3F)CC2)c(F)n1 [Example 5]
1.4 nM	1.8 nM						CNC(=O)c1ccc(N2CCN(Cc3ccc4c([nH]c(=O)c5cc(F)nn54)c3F)CC2)c(F)n1 [Example 25, 5-[4-({2,6-difluoro-4-oxo-5H-pyrazolo[1,5-a]quinoxalin-7-yl}methyl)piperazin-1-yl]-6-fluoro-N-methylpyridine-2-carboxamide]
3 nM	3.8 nM	16.3 ×10⁻⁶ cm/s	32.9 ×10⁻⁶ cm/s		22.9 ×10⁻⁶ cm/s	24.4 ×10⁻⁶ cm/s	[2H]C([2H])(c1ccc2c3c(c(=O)[nH]c2c1F)CCO3)N1CCN(c2ccc(C(=O)NC)nc2F)CC1 (single isomer, unassigned) [Example 24]
